According to patent publication US20240228555A9, “ANTIMICROBIAL PEPTIDOMIMETICS” (Basilea Pharmaceutica International AG, Allschwil, priority 2020, published 2024):
Where two headings read alike, the source gives them in different places. Where a SMILES comes first, the peptide text is derived from it. Bridges are numbered along the chain shown (N, C = ends). Where no end group is shown, it is not given here. [ ]: non-standard residue; d: D form. Orn(iPr) = CC(C)NCCC[C@H](N)C(=O)O; Dab(iPr) = CC(C)NCC[C@H](N)C(=O)O; Hyp = O=C(O)[C@@H]1C[C@@H](O)CN1; Pen = CC(C)(S)[C@H](N)C(=O)O; dDab = NCC[C@@H](N)C(=O)O; Dab = NCC[C@H](N)C(=O)O

Experiments:
[1] = system: Escherichia coli ATCC 25922
In short: (§1)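 First, bacterial colonies are suspended in saline and adjusted to 0.5 McFarland. Next, the suspension is diluted into cation-adjusted Mueller-Hinton II broth (approx. 5×10^5 CFU/mL). Finally, it is added to two-fold serially diluted peptide, with polysorbate 80 at 0.002% final.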

[2] = system: Escherichia coli MCR-1 Af 45; settings: Mueller-Hinton broth II, no visible growth after 18-20 hours at 35° C.
In short: as §1

[3] = system: Klebsiella pneumoniae SSI3010
In short: as §1

[4] = system: human red blood cells (hRBC); type: cell-based
In short: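 Percent lysis was derived from supernatant absorbance at 540 nm relative to full lysis by 2.5% Triton X-100 (PBS defines 0%). Compounds, 200 μg/mL, were exposed for 1 h at 37° C to a 20% (v/v) suspension of washed human red cells.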

[5] = red cells of human, 1 h, 0.2 g/L
[6] = Mueller-Hinton broth II, no visible growth after 18-20 hours at 35° C.

Row | Molecule | Escherichia coli ATCC 25922 MIC ([1]; ATCC 25922) | Escherichia coli MCR-1 Af 45 MIC [2] | Klebsiella pneumoniae SSI3010 MIC ([3]; SSI3010) | Hemolysis at 0.2 g/L [4, 5] | Escherichia coli ATCC 25922 MIC [1, 6] | Klebsiella pneumoniae SSI3010 MIC [3, 6] | Hemolysis at 0.2 g/L [4]
1 | CC[C@H](C)[C@H](NC(=O)[C@@H]1CCCCN1C(=O)[C@@H](N)C(C)C)C(=O)N[C@H](C(=O)N[C@@H](Cc1ccc(O)cc1)C(=O)N[C@@H]1C(=O)N[C@@H](CC(N)=O)C(=O)N[C@@H](CCCNC(=N)N)C(=O)N[C@@H](CCN)C(=O)N[C@@H]([C@@H](C)O)C(=O)N[C@H](CCN)C(=O)N[C@@H](CCCCN)C(=O)N[C@H](C(=O)N[C@@H](CCN)C(=O)N[C@@H](CCCNC(=N)N)C(=O)N[C@@H](Cc2ccc(O)cc2)C(=O)O)CSSC1(C)C)[C@@H](C)O [Example 132, Val-Pic-Ile-Thr-Tyr-Pen-Asn-Arg-Dab-Thr-^DDab-Lys-Cys-Dab-Arg-Tyr] (HELM PEPTIDE1{V.[O=C([C@@H]1CCCCN1[*:1])[*:2]].I.T.Y.[Pen].N.R.[Dab].T.[NCC[C@@H](N[*:1])C(=O)[*:2]].K.C.[Dab].R.Y}$PEPTIDE1,PEPTIDE1,6:R3-13:R3$$$V2.0) | 0.125 µg/mL | 0.125 µg/mL | 0.25 µg/mL | <1% |  |  | 
2 | CC[C@H](C)[C@H](NC(=O)[C@@H]1C[C@@H](O)CN1C(=O)[C@@H](N)C(C)C)C(=O)N[C@H](C(=O)N[C@@H](Cc1ccc(O)cc1)C(=O)N[C@@H]1C(=O)N[C@@H](CC(N)=O)C(=O)N[C@@H](CCCNC(=N)N)C(=O)N[C@@H](CCNC(C)C)C(=O)N[C@@H]([C@@H](C)O)C(=O)N[C@H](CCN)C(=O)N[C@@H](CCCCN)C(=O)N[C@H](C(=O)N[C@@H](CCN)C(=O)N[C@@H](CCCNC(C)C)C(=O)N[C@@H](Cc2ccc(O)cc2)C(=O)O)CSSC1(C)C)[C@@H](C)O [Example 134, Hyp-Ile-Thr-Tyr-Pen-Asn-Arg-Dab(iPr)-Thr-^DDab-Lys-Cys-Dab-Orn(iPr)-Tyr] (H-V[Hyp]ITY[Pen]NR[Dab(iPr)]T[dDab]KC[Dab][Orn(iPr)]Y-OH; disulfide 6-13) | 0.125 µg/mL | 0.25 µg/mL | 0.5 µg/mL | 1% |  |  | 
3 | CC[C@H](C)[C@H](NC(=O)[C@@H]1C[C@@H](O)CN1C(=O)[C@@H](N)C(C)C)C(=O)N[C@H](C(=O)N[C@@H](Cc1ccc(O)cc1)C(=O)N[C@@H]1C(=O)N[C@@H](CC(N)=O)C(=O)N[C@@H](CCCNC(=N)N)C(=O)N[C@@H](CCNC(C)C)C(=O)N[C@@H]([C@@H](C)O)C(=O)N[C@H](CCN)C(=O)N[C@@H](CCCCN)C(=O)N[C@H](C(=O)N[C@@H](CCNC(C)C)C(=O)N[C@@H](CCCNC(=N)N)C(=O)N[C@@H](Cc2ccc(O)cc2)C(=O)O)CSSC1(C)C)[C@@H](C)O [Example 135, Hyp-Ile-Thr-Tyr-Pen-Asn-Arg-Dab(iPr)-Thr-^DDab-Lys-Cys-Dab(iPr)-Arg-Tyr] (H-V[Hyp]ITY[Pen]NR[Dab(iPr)]T[dDab]KC[Dab(iPr)]RY-OH; disulfide 6-13) | 0.25 µg/mL | 0.25 µg/mL | 0.5 µg/mL | <1% |  |  | 
4 | CC[C@H](C)[C@H](NC(=O)[C@@H]1C[C@@H](O)CN1C(=O)[C@@H](N)C(C)C)C(=O)N[C@H](C(=O)N[C@@H](Cc1ccc(O)cc1)C(=O)N[C@@H]1C(=O)N[C@@H](CC(N)=O)C(=O)N[C@@H](CCCNC(=N)N)C(=O)N[C@@H](CCN)C(=O)N[C@@H]([C@@H](C)O)C(=O)N[C@H](CCN)C(=O)N[C@@H](CCCCN)C(=O)N[C@H](C(=O)N[C@@H](CCN)C(=O)N[C@@H](CCCNC(C)C)C(=O)N[C@@H](Cc2ccc(O)cc2)C(=O)O)CSSC1(C)C)[C@@H](C)O [Example 136, Hyp-Ile-Thr-Tyr-Pen-Asn-Arg-Dab-Thr-^DDab-Lys-Cys-Dab-Orn(iPr)-Tyr] (HELM PEPTIDE1{V.[Hyp].I.T.Y.[Pen].N.R.[Dab].T.[NCC[C@@H](N[*:1])C(=O)[*:2]].K.C.[Dab].[CC(C)NCCC[C@H](N[*:1])C(=O)[*:2]].Y}$PEPTIDE1,PEPTIDE1,6:R3-13:R3$$$V2.0) | 0.125 µg/mL | 0.25 µg/mL | 0.5 µg/mL | <1% |  |  | 
5 | CC[C@H](C)[C@@H]1NC(=O)[C@@H](NC(=O)[C@H](Cc2ccc(O)cc2)NC(=O)[C@@H](NC(=O)[C@@H](NC(=O)[C@@H]2C[C@@H](O)CN2C(=O)[C@@H](N)C(C)C)[C@@H](C)CC)[C@@H](C)O)C(C)(C)SSC[C@@H](C(=O)N[C@@H](CCN)C(=O)N[C@@H](CCCNC(C)C)C(=O)N[C@@H](Cc2ccc(O)cc2)C(=O)O)NC(=O)[C@H](CCCCN)NC(=O)[C@@H](CCN)NC(=O)[C@H]([C@@H](C)O)NC(=O)[C@H](CCN)NC(=O)[C@H](CCCNC(=N)N)NC1=O [Example 137, Hyp-Ile-Thr-Tyr-Pen-Ile-Arg-Dab-Thr-^DDab-Lys-Cys-Dab-Orn(iPr)-Tyr] (HELM PEPTIDE1{V.[Hyp].I.T.Y.[Pen].I.R.[Dab].T.[NCC[C@@H](N[*:1])C(=O)[*:2]].K.C.[Dab].[CC(C)NCCC[C@H](N[*:1])C(=O)[*:2]].Y}$PEPTIDE1,PEPTIDE1,6:R3-13:R3$$$V2.0) | 0.125 µg/mL | 0.125 µg/mL | 0.25 µg/mL | <1% |  |  | 
6 | CC[C@H](C)[C@H](NC(=O)[C@@H]1C[C@@H](O)CN1C(=O)[C@@H](N)C(C)C)C(=O)N[C@H](C(=O)N[C@@H](Cc1ccc(O)cc1)C(=O)N[C@@H]1C(=O)N[C@@H](CC(N)=O)C(=O)N[C@@H](CCCNC(=N)N)C(=O)N[C@@H](CCN)C(=O)N[C@@H]([C@@H](C)O)C(=O)N[C@H](CCNC(C)C)C(=O)N[C@@H](CCCCN)C(=O)N[C@H](C(=O)N[C@@H](CCN)C(=O)N[C@@H](CCCNC(=N)N)C(=O)N[C@@H](Cc2ccc(O)cc2)C(=O)O)CSSC1(C)C)[C@@H](C)O [Example 138, Hyp-Ile-Thr-Tyr-Pen-Asn-Arg-Dab-Thr-^DDab(iPr)-Lys-Cys-Dab-Arg-Tyr] (HELM PEPTIDE1{V.[Hyp].I.T.Y.[Pen].N.R.[Dab].T.[CC(C)NCC[C@@H](N[*:1])C(=O)[*:2]].K.C.[Dab].R.Y}$PEPTIDE1,PEPTIDE1,6:R3-13:R3$$$V2.0) | 0.125 µg/mL | 0.125 µg/mL | 0.5 µg/mL | <1% |  |  | 
7 | V[Hyp]ITY[Pen]NR[Dab]T[dDab]NC[Dab]RY (cysteine pairing not given here) [Example 40] |  | 0.25 µg/mL |  |  | 0.25 µg/mL | 0.5 µg/mL | 0%
8 | Val-NalloThr-Ile-Thr-Tyr-Pen-Asn-Arg-Dab-Thr-^DDab-Lys-Cys-Dab-Arg-Tyr [Example 133] |  | 0.25 µg/mL |  |  | 0.25 µg/mL | 0.5 µg/mL | <1%
